# In patent US20240358841A1, “NANOMATERIALS COMPRISING TETRAVALENT LIPID COMPOUNDS” (Beam Therapeutics Inc., priority 2021, published 2024):
# Experiments:
# Spleen = experiment: Barcoded pooled LNP biodistribution screen, fold above input (FAI) in spleen; format: in vivo; conditions: pooled LNP IV tail vein, mice, 4 hours post-dose
# Experimental: (§1) Male and female mice aged approximately 8-12 weeks were used for studies described by the present Example. Each mouse was temporarily restrained and pooled LNP was administered IV via tail vein injection in up to five animals per experiment. Age-matched mice was also used to administer vehicle (1×TBS) via tail vein injection in up to three animals per experiment. Additional routes of administration can also be conducted including intracerebral ventricular (ICV), intracisterna manga (ICM), intrathecal (IT), intramuscular (IM), nebulization, intranasal (IN), subcutaneous (SC), intraarticular, and intradermal (ID). At 4 hours post-dose, tissues including liver, spleen, bone marrow, testes, gastrocnemius, quadricep, lung, heart, kidney, and pancreas may be collected for analysis.
# (§2) Liver, kidney, lung, and muscle (e.g. skeletal and cardiac) tissues may be mechanically, and then enzymatically digested using a mixture of proteinases, then passed through a 70 μm filter to generate single cell suspensions. Spleen tissues were mechanically digested to generate single cell suspensions. Tissues were treated with ACK buffer to lyse red blood cells, and then stained with fluorescently labeled antibodies for flow cytometry and fluorescence-activated cell sorting (FACS). Commercially available antibodies were used in the present example. Using a BD FACSMelody (Becton Dickinson), samples were acquired via flow cytometry to generate gates prior to sorting. […]
# (§3) To screen for preferential LNP delivery to a target tissues, the relative abundance of each barcode in one or more target tissues was measured and compared to the relative abundance of each barcode to its corresponding relative input abundance to determine fold above input (FAI) for each barcode. […]
# (§4) The FAI is the normalized relative abundance of a barcode in a selected sample as compared to its frequency in the input. […] The FAI value of the barcode was calculated by normalizing the relative abundance in the barcode sequence counts in the isolated samples to its relative abundance in the administration input. […]
# Liver = experiment: Barcoded pooled LNP biodistribution screen, fold above input (FAI) in liver; format: in vivo; conditions: pooled LNP IV tail vein, mice, 4 hours post-dose
# Experimental: as §1, §2, §3, §4
# Lung = experiment: Barcoded pooled LNP biodistribution screen, fold above input (FAI) in lung; format: in vivo; conditions: pooled LNP IV tail vein, mice, 4 hours post-dose
# Experimental: as §1
# Liver, kidney, lung, and muscle (e.g. skeletal and cardiac) tissues may be mechanically, and then enzymatically digested using a mixture of proteinases, then passed through a 70 μm filter to generate single cell suspensions. Spleen tissues were mechanically digested to generate single cell suspensions. Tissues were treated with ACK buffer to lyse red blood cells, and then stained with fluorescently labeled antibodies for flow cytometry and fluorescence-activated cell sorting (FACS). Commercially available antibodies were used in the present example. Using a BD FACSMelody (Becton Dickinson), samples were acquired via flow cytometry to generate gates prior to sorting. In general, the gating structure was size→singlet cells→live cells→cells of interest. T cells were defined as CD45+CD3+, monocytes are defined as CD45+CD11b+, and B cells are defined as CD45+CD19+. Endothelial cells were defined as CD31+, monocytes and Kupffer cells as CD45+CD11b+ and hepatocytes and myocytes were defined as CD31−/CD45− in the liver and muscle, respectively. Tissues from vehicle-dosed mice were used to set the gates for sorting.
# RNA from tissues were extracted using the Reliaprep RNA extraction kit, and libraries were prepared using the RNAseq kit, and sequenced on either a MiSeq or NextSeq500.
# as §3, §4
# [1] = LNP hydrodynamic diameter and polydispersity index by dynamic light scattering (DLS); format: physicochemical; conditions: LNP: 47.5% ionizable lipid, 40% cholesterol, 2.5% PEG-2000 DMG, 10% DPSC, N/P 4-8
# Experimental: (§5) LNPs were prepared with 47.5% Ionizable Lipid (e.g., a compound provided herein): 40% cholesterol: 2.5% PEG-2000 DMG; and 10% DPSC and an N/P ratio range of 4-8. LNPs were formed by microfluidic mixing of the lipid and NA solutions using a Precision Nanosystems NanoAssemblr Spark or Benchtop series Instruments, according to the manufacturers protocol. A ratio of aqueous to organic solvent of approximately 2:1 or 3:1 was maintained during mixing using differential flow rates. After mixing, LNPs were collected, diluted in phosphate buffer saline (PBS) or Tris-buffered saline (TBS) (approximately 1:1 v/v). Further buffer exchange was conducted using dialysis in PBS or TBS at 4° C. for 4 to 24 hours against a 20 kDa filter. After this initial dialysis, each individual LNP preparation was characterized via dynamic light scattering (DLS) to measure the size (e.g., diameter) and polydispersity. LNPs falling within specific diameter and polydispersity ranges were pooled, and further dialyzed against PBS or TBS at 4° C. for 1 to 4 hours against a 100 kDa dialysis cassette. After the second dialysis, LNPs were sterile filtered using 0.22 μm filter and stored at 4° C. for further use.
# LNP hydrodynamic diameter and polydispersity index (PDI) were measured using high throughput dynamic light scattering (DLS) (Stunner, Unchained Labs). LNPs were diluted 1×TBS or PBS to an appropriate concentration and analyzed.
# [2] = LNP encapsulation efficiency by Ribogreen assay; format: physicochemical; conditions: LNP: 47.5% ionizable lipid, 40% cholesterol, 2.5% PEG-2000 DMG, 10% DPSC, N/P 4-8
# Experimental: as §5
# RNA concentration and encapsulation efficiency were determined by Ribogreen assay (BioTek Synergy LX plate reader).
# [3] = screening experiment of Table 4
# [4] = screening experiment of Table 5
# [5] = screening experiment of Table 6
FAI (Spleen) (Spleen; [3]),FAI (Spleen) (Spleen; [4]),FAI (Spleen) (Spleen; [5]),FAI (Liver) (Liver; [3]),FAI (Liver) (Liver; [4]),FAI (Liver) (Liver; [5]),FAI (Lung) (Lung; screening experiment of Table 3),FAI (Lung) (Lung; [3]),FAI (Lung) (Lung; [4]),FAI (Lung) (Lung; [5]),Mean Diameter (nm) [1] [nm],Mean PDI [1],Mean Encapsulation Efficiency (%) [2] [%],Structure (SMILES)
1.57,0.61,1.50,1.00,0.30,0.73,0.50,0.86,1.51,1.68,–,–,–,CCCCC/C=C\C/C=C\CCCCCCCCC(CCCCCCCC/C=C\C/C=C\CCCCC)OC(=O)CCCN(C)C [MC3]
–,–,–,–,–,–,–,–,–,–,108.5,0.07,79.9,"CCCCC/C=C\CCOC(=O)CCCCCCC(=O)OCC(COC(=O)CCCCCCC(=O)OCC/C=C\CCCCC)(COC(=O)CCCCCCC(=O)OCC/C=C\CCCCC)COC(=O)NCCN1CCCC1 [Compound 7-16, 8,8′-di((Z)-non-3-en-1-yl) O′1,O1-(2-(((8-(((Z)-non-3-en-1-yl)oxy)-8-oxooctanoyl)oxy)methyl)-2-((((2-(pyrrolidin-1-yl)ethyl)carbamoyl)oxy)methyl)propane-1,3-diyl) di(octanedioate)]"
–,–,–,–,–,–,–,–,–,–,87.5,0.18,89.5,"CC/C=C\CCCCOC(CCC(=O)OCC(COC(=O)CCCCCCC/C=C\C/C=C\CCCCC)(COC(=O)CCCCCCC/C=C\C/C=C\CCCCC)COC(=O)OCCCN(CC)CC)OCCCC/C=C\CC [Compound 7-67, 2-(((4,4-bis(((Z)-oct-5-en-1-yl)oxy)butanoyl)oxy)methyl)-2-((((3-(diethylamino)propoxy)carbonyl)oxy)methyl)propane-1,3-diyl (9Z,9′Z,12Z,12′Z)-bis(octadeca-9,12-dienoate)]"
–,–,–,–,–,–,–,–,–,–,82.1,0.13,90.4,"CC/C=C\CCCCOC(CCC(=O)OCC(COC(=O)CCCCCOC(=O)C(CCCC)CCCCCC)(COC(=O)CCCCCOC(=O)C(CCCC)CCCCCC)COC(=O)NCCN1CCCC1)OCCCC/C=C\CC (stereo not shown) [Compound 7-64, ((2-(((4,4-bis(((Z)-oct-5-en-1-yl)oxy)butanoyl)oxy)methyl)-2-((((2-(pyrrolidin-1-yl)ethyl)carbamoyl)oxy)methyl)propane-1,3-diyl)bis(oxy))bis(6-oxohexane-6,1-diyl) bis(2-butyloctanoate)]"
